From PMC8151276, “An Integrated Approach toward NanoBRET Tracers for Analysis of GPCR Ligand Engagement” (Molecules, 2021)

Assays:
Format in all cases: binding
AVPR2 = biological target: T1, AVPR2 (Homo sapiens, UniProt P30518); experiment: NanoBRET screen HiBiT-AVPR2 in HEK293
T1 construct: purchased Promega (in-house HiBiT-GPCR construct library, NanoBRET)
Experimental: (§1) Each tracer candidate was screened across the entire library of HiBiT-GPCR constructs using NanoBRET as the detection modality. As depicted in Figure 4A, the specificity of interactions was evaluated through decrease in BRET due to competitive displacement of a bound tracer by excess parental compound. Each tracer was analyzed for binding to each HiBiT-GPCR fusion in the absence and in the presence of competing parental compound. Briefly, HEK293 cells were transfected with HiBiT-GPCR constructs diluted into promoterless DNA to reduce expression and maximize translocation to the cell surface. Each tracer candidate was then screened at concentrations of 1 μM and 0.1 μM across cells expressing these fusions. Cells were treated for 1.5 h with tracer either alone or in the presence of 20 μM competing parental compound (i.e., control). BRET was measured upon addition of purified LgBiT and subsequent complementation with HiBiT genetically fused to a GPCR. The specificity of interactions was assessed through a decrease in BRET signal due to competitive displacement of the bound tracer. To further gauge the robustness of these interactions, the fold response over the control (i.e., BRETtracer/BRETcontrol) was calculated. We chose a 1.5-fold response, which translates to ≥7-fold signal over noise as the minimal threshold required to score an interaction as positive. […]. Below we highlight the screening results obtained for our exemplary fluorescent tracers based on Clozapine, Amitriptyline and AZD1283.
(§2) HiBiT-GPCR DNA constructs were diluted in 10 mM Tris pH 8 to a final concentration of 0.01 μg/μL, arrayed in 96-well plates and stored at −20 °C. For transfection, HEK293 cells were suspended in Opti-MEM (without phenol red) supplemented with 2% fetal bovine serum (Seradigm) and 100 units/mL penicillin–streptomycin (Gibco) at a final concentration of 220,000 cells/mL and dispensed into white 96-well plates at 90 μL/well. Subsequent transfections and screens were carried using an Agilent Bravo Automated Liquid Handling Platform. First, the 96-well HiBiT DNA arrays were diluted 25-fold in Opti-MEM (without serum or phenol red) to a final concentration of 0.0004 μg/μL and 20 μL of the diluted DNAs were transferred into new 96-well plates. Next, promoterless carrier DNA (1 μg/μL) was diluted 25-fold (0.04 μg/μL) and then dispensed into the diluted arrays at 20 μL/well. Following brief mixing, Viafect transfection reagent (Promega) diluted 16-fold into Opti-MEM was dispensed into the plates at 40 μL/well. After mixing by pipetting, plates were incubated for 10 min on the pipetting station deck. The DNA-transfection reagent complexes were then added to plates containing cells. To facilitate the screen, 10 μL of DNA-transfection reagent complexes were added in duplicates to the top 4 and bottom 4 rows, resulting in two identical 48-well arrays per plate. Plates with transfected cells were incubated for 18–20 h at 37 °C/5% CO2. A screen of each tracer across the entire library using two different concentrations requires duplicate plates of transfected cells. Depending on the number of tracers being screened, transfections can be scaled up using the same ratios. The next day, for each tracer, four 20× screening solutions in tracer dilution buffer (Promega) were prepared: two duplicates at final concentration of 20 μM and two duplicates at a final concentration of 2 μM. A competing unmodified compound was added to one of each duplicate at a final concentration of 400 μM. The four resulting solutions were diluted 4-fold in Opti-MEM without serum or phenol red to generate 5× solutions (5 µM and 0.5 µM tracer +/− 100 μM competing compound). To screen the library, a BioTek MultiFlo FX liquid dispenser was used to dispense 22.5 µL of tracer solution to the top 4 rows and 22.5 µL tracer + competing compound solution to the 4 bottom rows. Plates were briefly mixed on an orbital shaker and incubated for 1.5 h at room temperature. […]

SSTR1 = biological target: T2, SSTR1 (Homo sapiens, UniProt P30872); experiment: NanoBRET screen HiBiT-SSTR1 in HEK293
T2 construct: purchased Promega (in-house HiBiT-GPCR construct library, NanoBRET)
T2 sequence (P30872 whole entry): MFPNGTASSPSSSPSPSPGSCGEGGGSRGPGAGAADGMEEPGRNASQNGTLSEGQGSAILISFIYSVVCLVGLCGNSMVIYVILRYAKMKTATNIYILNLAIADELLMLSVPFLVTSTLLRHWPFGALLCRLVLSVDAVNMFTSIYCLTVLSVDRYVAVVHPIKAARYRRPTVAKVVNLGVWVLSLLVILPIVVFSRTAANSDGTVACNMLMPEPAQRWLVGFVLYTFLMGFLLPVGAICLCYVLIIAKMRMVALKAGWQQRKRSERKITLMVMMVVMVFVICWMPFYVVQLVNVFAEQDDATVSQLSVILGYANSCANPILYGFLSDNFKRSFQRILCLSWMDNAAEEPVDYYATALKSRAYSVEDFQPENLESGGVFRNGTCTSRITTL
Experimental: as §1, §2

P2RY10 = biological target: T3, P2RY10 (Homo sapiens, UniProt O00398); experiment: NanoBRET screen HiBiT-P2RY10 in HEK293
T3 construct: purchased Promega (in-house HiBiT-GPCR construct library, NanoBRET)
T3 sequence (O00398 whole entry, one chain of several): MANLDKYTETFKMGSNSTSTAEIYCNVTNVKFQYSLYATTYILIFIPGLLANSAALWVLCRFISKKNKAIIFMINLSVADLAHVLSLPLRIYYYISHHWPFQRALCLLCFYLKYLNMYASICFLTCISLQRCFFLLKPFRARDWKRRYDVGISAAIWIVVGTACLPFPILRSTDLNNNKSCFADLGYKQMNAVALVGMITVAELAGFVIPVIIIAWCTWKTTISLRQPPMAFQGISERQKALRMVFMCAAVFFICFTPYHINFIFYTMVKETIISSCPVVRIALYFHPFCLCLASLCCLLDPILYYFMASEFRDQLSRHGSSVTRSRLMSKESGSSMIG
Experimental: as §1, §2

[1] = tracer at 0.1μM, listed as amitriptyline-b-2-NB590
[2] = tracer at 1μM, listed as amitriptyline-b-2-NB590

T1 sequence (P30518 whole entry): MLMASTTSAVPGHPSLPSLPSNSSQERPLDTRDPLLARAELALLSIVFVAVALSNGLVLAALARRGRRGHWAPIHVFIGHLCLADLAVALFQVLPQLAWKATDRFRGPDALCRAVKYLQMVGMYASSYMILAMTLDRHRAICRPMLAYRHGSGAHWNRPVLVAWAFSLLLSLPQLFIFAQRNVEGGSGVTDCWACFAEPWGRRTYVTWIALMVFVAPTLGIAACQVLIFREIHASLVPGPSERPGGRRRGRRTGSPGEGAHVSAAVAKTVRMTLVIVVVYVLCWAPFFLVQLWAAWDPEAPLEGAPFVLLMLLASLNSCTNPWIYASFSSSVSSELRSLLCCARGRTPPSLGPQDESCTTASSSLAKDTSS

SMILES: CCOC(=O)c1cc(C#N)c(N2CCC(C(=O)NS(=O)(=O)Cc3ccccc3/C=C/C(=O)NCCNC(=O)CCc3ccc4n3[B-](F)(F)[N+]3=C(c5ccc[nH]5)C=CC3=C4)CC2)nc1C [AZD1283-1-NB590]
- NanoBRET Fold Response (AVPR2; AVPR2, 0.1μM): 1.03
- NanoBRET Fold Response (AVPR2; AVPR2, 1μM): 1.05
- NanoBRET Fold Response (SSTR1; SSTR1, 0.1μM): 1.08
- NanoBRET Fold Response (SSTR1; SSTR1, 1μM): 1.10
- NanoBRET Fold Response (P2RY10; P2RY10, 0.1μM): 1.35
- NanoBRET Fold Response (P2RY10; P2RY10, 1μM): 1.22

SMILES: N#CN=C(NCCCOc1cccc(CN2CCCCC2)c1)NCCNC(=O)CCOCCOCCOCCOCCNC(=O)CCc1ccc2n1[B-](F)(F)[N+]1=C(c3ccc[nH]3)C=CC1=C2 [Aminopotentidine-2-NB590]
- NanoBRET Fold Response (AVPR2; AVPR2, tracer 0.1μM): 1.01
- NanoBRET Fold Response (AVPR2; AVPR2, tracer 1μM): 1.04
- NanoBRET Fold Response (SSTR1; SSTR1, tracer 0.1μM): 1.02
- NanoBRET Fold Response (SSTR1; SSTR1, tracer 1μM): 0.98
- NanoBRET Fold Response (P2RY10; P2RY10, tracer 0.1μM): 1.03
- NanoBRET Fold Response (P2RY10; P2RY10, tracer 1μM): 1.02

SMILES: CN(C)CCC=C1c2ccccc2CCc2ccc(C(=O)NCCNC(=O)CCOCCOCCOCCOCCNC(=O)CCc3ccc4n3[B-](F)(F)[N+]3=C(c5ccc[nH]5)C=CC3=C4)cc21 [Amitriptyline-a-2-NB590]
- NanoBRET Fold Response (AVPR2; tracer at 0.1μM): 0.95
- NanoBRET Fold Response (AVPR2; tracer at 1μM): 1.05
- NanoBRET Fold Response (SSTR1; tracer at 0.1μM): 1.30
- NanoBRET Fold Response (SSTR1; tracer at 1μM): 1.28
- NanoBRET Fold Response (P2RY10; tracer at 0.1μM): 1.09
- NanoBRET Fold Response (P2RY10; tracer at 1μM): 1.07

SMILES: CN(C)CCC=C1c2ccccc2CCc2ccc(C(=O)NCCNC(=O)CCOCCOCCOCCOCCNC(=O)CCc3ccc4n3[B-](F)(F)[N+]3=C(c5ccc[nH]5)C=CC3=C4)cc21 [Amitriptyline-b-2-NB590]
- NanoBRET Fold Response (AVPR2; [1]): 1.13
- NanoBRET Fold Response (AVPR2; [2]): 0.89
- NanoBRET Fold Response (SSTR1; [2]): 1.07
- NanoBRET Fold Response (P2RY10; [1]): 1.14
- NanoBRET Fold Response (P2RY10; [2]): 1.38

SMILES: CN(CCC=C1c2ccccc2CCc2ccccc21)C(=O)CCOCCOCCOCCOCCNC(=O)CCc1ccc2n1[B-](F)(F)[N+]1=C(c3ccc[nH]3)C=CC1=C2 [Amitriptyline-e-2-NB590]
- NanoBRET Fold Response (AVPR2; tracer at 1μM): 0.99
- NanoBRET Fold Response (P2RY10; tracer at 1μM): 0.99

SMILES: COc1ccc2c(n1)c(CCNC(C)=O)cn2CCNC(=O)CCc1ccc2n1[B-](F)(F)[N+]1=C(c3ccc[nH]3)C=CC1=C2 [Azamelatonin-1-NB590]
- NanoBRET Fold Response (AVPR2; 0.1μM tracer): 0.91
- NanoBRET Fold Response (AVPR2; 1μM tracer): 1.01
- NanoBRET Fold Response (SSTR1; 0.1μM tracer): 1.08
- NanoBRET Fold Response (SSTR1; 1μM tracer): 1.03
- NanoBRET Fold Response (P2RY10; 0.1μM tracer): 0.88
- NanoBRET Fold Response (P2RY10; 1μM tracer): 0.88

SMILES: COc1ccc2[nH]c(-c3ccc(CNC(=O)CCOCCOCCOCCOCCNC(=O)CCc4ccc5n4[B-](F)(F)[N+]4=C(c6ccc[nH]6)C=CC4=C5)cc3)c(CCNC(C)=O)c2n1 [AzomelatoninICO9-2-NB590]
- NanoBRET Fold Response (AVPR2; 0.1μM tracer): 0.84
- NanoBRET Fold Response (AVPR2; 1μM tracer): 0.87
- NanoBRET Fold Response (SSTR1; 0.1μM tracer): 1.13
- NanoBRET Fold Response (SSTR1; 1μM tracer): 1.01
- NanoBRET Fold Response (P2RY10; 0.1μM tracer): 0.88
- NanoBRET Fold Response (P2RY10; 1μM tracer): 1.15

SMILES: O=C(CCOCCOCCOCCOCCNC(=O)CCc1ccc2n1[B-](F)(F)[N+]1=C(c3ccc[nH]3)C=CC1=C2)NCCCN1CCN(C2=Nc3cc(Cl)ccc3Nc3ccccc32)CC1 [Clozapine-a-2-NB590]
- NanoBRET Fold Response (AVPR2; AVPR2, 0.1μM tracer): 1.03
- NanoBRET Fold Response (AVPR2; AVPR2, 1μM tracer): 0.95
- NanoBRET Fold Response (SSTR1; SSTR1, 0.1μM tracer): 0.96
- NanoBRET Fold Response (SSTR1; SSTR1, 1μM tracer): 1.00
- NanoBRET Fold Response (P2RY10; P2RY10, 0.1μM tracer): 1.18
- NanoBRET Fold Response (P2RY10; P2RY10, 1μM tracer): 1.33
